Measured values published in patent publication US12492163B2, “9H-fluorene derivatives or their pharmaceutically acceptable salts” (priority 2020, dated 2025).

Tests used:
mGAT3 = mGAT3 (Mus musculus (Mouse), UniProt P31649); assay: [3H]GABA uptake inhibition, mGAT3 in HEK293 cells; format: cell-based; settings: GABA reuptake
Procedure: Exemplary compounds according to the invention were screened at the Ludwig-Maximilian University of Munich to determine the inhibitory ability towards four mouse GAT transporters (mGAT1-mGAT4). […] The biological material was stably transfected human embryonic kidney HEK293 cells, expressing genes to the appropriate transporters. The generated radioactivity was measured with a liquid scintillation counter. […] These determinations were made according to the procedure described in detail in A. Kragler, G. Höfner, K. T. Wanner, Novel parent structures for inhibitors of the murine GABA transporters mGAT3 and mGAT4, Eur. J. Pharmacol. 519 (2005) 43-47.

[1] = biological target: Recombinant human Aβ1-42 peptide (Homo sapiens (Human), UniProt P05067); assay: Thioflavin T test, antiaggregation activity against beta-amyloid; format: biochemical; settings: 10 μM test compound, 1.5 μM Aβ1-42; read-out: inh. Aβ aggr. % inh
How it was run: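 Aβ1-42 (1.5 μM final, HFIP-pretreated) aggregated in HEPES pH 7.4 with 150 mM NaCl, thioflavin T 10 μM, 3% DMSO, compound 10 μM. Fluorescence (ex 440/em 490 nm) read every 300 s with mixing; plateau values minus t=0 give % inhibition; IC50 by non-linear regression against concentration.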

C57BL/6J mice = assay: Morris water maze test (scopolamine); format: in vivo, Mus musculus
Procedure: The research was conducted at the Department of Pharmacodynamics, Faculty of Pharmacy, Jagiellonian University in Krakow. All procedures were approved by the 1st and 2nd Local Ethics Committee for Animal Experiments in Krakow (consent no. 53/2017 and 250/2019) and were performed in accordance with the applicable European Union regulation (86/609/EEC). Males of two different strains of domestic mice (Mus musculus) were used in the study: Albino Swiss CD-1 (body weight approx. 20-24 g, age approx. 6 weeks) and C57BL/6J mice (body weight approx. 18-22 g, age approx. 6 weeks). […]
At this stage of the study, each mouse underwent four trials every day (trial interval approx. 1 hour). […] During the acquisition (learning) phase, the time and distance traveled to find the platform were measured. Additionally, the trajectories of movement in the pool were analyzed. […] The latency of finding the place where the platform was previously (during the acquisition/learning phase) was measured, as well as the number of crossings through the zone, where the platform was in the acquisition phase. In addition, the total residence time and distance traveled in the relevant quadrant of the pool (in the NW zone where the platform was at the time of acquisition) were measured, as well as the speed and total distance traveled by the animal during the 60 s of the test. […]

mGAT3, sequence (P31649 whole entry): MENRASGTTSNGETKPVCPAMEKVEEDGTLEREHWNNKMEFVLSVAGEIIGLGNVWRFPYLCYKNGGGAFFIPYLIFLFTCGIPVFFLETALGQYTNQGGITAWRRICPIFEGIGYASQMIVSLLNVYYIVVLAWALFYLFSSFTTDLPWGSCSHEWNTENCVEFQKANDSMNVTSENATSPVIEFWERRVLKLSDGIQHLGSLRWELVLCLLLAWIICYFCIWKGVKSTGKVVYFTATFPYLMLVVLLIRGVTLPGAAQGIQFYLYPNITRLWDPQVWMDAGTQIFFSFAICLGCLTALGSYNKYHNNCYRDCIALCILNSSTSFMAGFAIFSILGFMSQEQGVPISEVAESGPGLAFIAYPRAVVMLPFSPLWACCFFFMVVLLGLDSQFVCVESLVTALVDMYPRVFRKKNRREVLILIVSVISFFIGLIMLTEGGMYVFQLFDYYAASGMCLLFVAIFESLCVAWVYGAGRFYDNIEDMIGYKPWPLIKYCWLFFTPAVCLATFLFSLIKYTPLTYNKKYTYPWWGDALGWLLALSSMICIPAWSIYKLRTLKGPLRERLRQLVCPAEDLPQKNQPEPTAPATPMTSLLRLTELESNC
Recombinant human Aβ1-42 peptide, sequence (P05067 672-713): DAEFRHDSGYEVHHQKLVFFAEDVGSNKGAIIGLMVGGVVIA

O[C@H](CNCC1CC1)[C@H](Cc1ccccc1)NC1c2ccccc2-c2ccccc21 [JT-3, (2R,3S)-3-((9H-fluoren-9-yl)amino)-1-((cyclopropylmethyl)amino)-4-phenylbutan-2-ol]
pIC50 (+/−SEM) mGAT3 (mGAT3): 5.13 +/− 0.04
inhibition at 10 µM [1]: 79%
latency to find the hidden platform, acquisition phase vs scopolamine control (C57BL/6J mice; 10 mg/kg i.p., fifth day of the test, p<0.01): statistically significant difference
recall phase parameters (time, crossings, distance, entries in NW zone) (C57BL/6J mice; seventh day, 10 mg/kg i.p. on days 1-6): did not affect any of the parameters studied
